Data as given in patent US20240335402A1, “BIODEGRADABLE ANTI-INFECTIVE FORMULATIONS” (New Mexico Tech University Research Park Corporation, priority 2023, published 2024).

Test system: colistin (polymyxin E, or PME) resistant bacterium S. maltophilia
Test: Spot test on lawn of colistin resistant bacterium
Type: cell-based
Settings: 10 μL spotted, 37° C., 2 days

O=C([O-])CC(O)(CC(=O)[O-])C(=O)[O-].[Na+].[Na+].[Na+] [Trisodium citrate]
activity / kill of S. maltophilia lawn: did not work as well as CTAC
